US9987246B2, “4-benzylsulfonyl-2-butenenitrile” (Olatec Therapeutics LLC, priority 2014, dated 2018)

Tests used:
mice = experiment: Tail flick test (analgesic activity, 49° C. water bath); format: in vivo
Experimental: Tail flick test is a test of the pain response in animals. Tail flick test is used in basic pain research and to measure the effectiveness of analgesics, by observing the tail flick reaction to heat in an animal. This test assesses the nociceptive response to a local pain stimulus, and the ability of a drug to inhibit this response.
Vehicle control (dimethyl sulfoxide, DMSO) and test compound 4-benzylsulfonyl-2-butenenitrile in DMSO were administered intraperitoneally to mice with a volume of 5 mL/kg, twice, at 30 minutes before the first tail flick measurement. The test compound was administered at a dosage of 50 mg/kg. The positive control compound morphine was administered by subcutaneous injection at 8 mg/kg with a volume of 8 mL/kg, at 30 minutes before the first tail flick measurement. Each group had 10 mice.
The response of mice to heat stimulus was evaluated by measuring the time of tail-flick or tail-flick latency from 49° C. water bath. Briefly, the animal was placed in a restrainer with its tail hanging down. Approximately 2 inches of the tail was immersed in a beaker of water at 38±1° C. for about 30 seconds, and this was done twice to acclimate the animal to the procedure.
Subsequently, approximately 2 inches of the tail was immersed in a beaker of water at 49±1° C., at which point a timer was started.
Tail flick measurements were made 30, 60 and 120 minutes post administration of the dosage of test compound. An ANOVA was done, and if p<0.05, a Dunnett's t test was employed to calculate significant difference between vehicle control and test compound treated groups. A pairwise Student's t test was used to calculate differences between the morphine group and the control group.

[1] = test system: human peripheral blood mononuclear cells; experiment: Pro-inflammatory cytokine release from human peripheral blood mononuclear cells in vitro; format: cell-based; conditions: statement only, no data or method given

Row | Compound | tail flick latency compared with vehicle-treated mice (mice; 50 mg/kg intraperitoneal in DMSO, 30 minutes, p value=0.046) | tail flick latency compared with vehicle-treated mice (mice; 50 mg/kg intraperitoneal in DMSO, 120 minutes, p value=0.020) | inhibition of pro-inflammatory cytokine release (e.g., IL-1β, IL-6, TNFα, IL-4 and IFNγ) [1] | tail flick latency compared with vehicle-treated mice (mice; morphine 8 mg/kg subcutaneous injection, 30 minutes) | tail flick latency compared with vehicle-treated mice (mice; morphine 8 mg/kg subcutaneous injection, 60 minutes) | tail flick latency compared with vehicle-treated mice (mice; morphine 8 mg/kg subcutaneous injection, 120 minutes)
1 | N#CC=CCS(=O)(=O)Cc1ccccc1 (racemic) [4-benzylsulfonyl-2-butenenitrile] | statistically significant tail flick latency | statistically significant tail flick latency | effective in inhibiting pro-inflammatory cytokine release | – | – | –
2 | CN1CC[C@]23c4c5ccc(O)c4O[C@H]2[C@@H](O)C=C[C@H]3[C@H]1C5 [Morphine, morphine] | – | – | – | statistically significant tail flick latency | statistically significant tail flick latency | not at 120 minutes
